Measured values from patent US6599906B1, “Method of local anesthesia and analgesia” (priority 2000, dated 2003).
“And” between values parts separate entries of the source, which are not always exact repeats. Identical values can stand only once. Like-named read-outs stand apart in the source and are kept apart here.

Tests used:
[1] = tested on: pain induced by tooth pulp stimulation; type: in vivo, New Zealand white rabbits
[2] = tested on: rabbits; details: rabbit, in vivo
[3] = tested on: rabbits; details: rabbit, in vivo; remark: listed apart in the source
[4] = tested on: rabbits; details: rabbit, in vivo; remark: listed apart in the source
[5] = tested on: pain induced by tooth pulp stimulation; set-up: species or system rabbits; details: rabbit, in vivo; read-out: EC50 value and 95% confidence interval for dental local analgesia
[6] = tested on: tooth pain; details: background statement, patients; cited from earlier work

Question: For `CCN(CC)CC(=O)Nc1c(C)cccc1C` [lidocaine], which “Percentage change in pain-inducing threshold voltage” value (“Percentage change” below) ([1]; rabbit, in vivo) is on record?
Answer: Its value is 30 ± 29% and 28 ± 36% and 26 ± 30% and 20 ± 32% and 24 ± 32% and 17 ± 21%.

Question: What about the “effect on the threshold voltage compared to the solvent control, in words” value ([1]; rabbit, in vivo) of the same compound?
Answer: The value was “markedly increased the threshold voltage”.

Question: What about the “synergistic activity with TTX, in words” value ([1]; rabbit, in vivo) of the same compound?
Answer: The value was “did not show a similar synergistic activity”.

Question: Which “rabbits manifesting increased excretion in the respiratory tract” value [2] does the source give for `NC1=N[C@H](O)[C@H]2[C@H]3O[C@]4(O)O[C@@H]([C@@H](O)[C@@]2(N1)[C@@H]4O)[C@]3(O)CO` [tetrodotoxin, Tetrodotoxin] here?
Answer: Its value is 4 out of 10.

Question: And the “onset of the effect of TTX increasing the threshold voltage” value ([1]; rabbit, in vivo)?
Answer: The value was 5 min.

Question: What about the “time at which peak of effect on threshold voltage was reached” value ([1]; rabbit, in vivo) of the same compound?
Answer: The value was 1 h.

Question: And the ALP [3]?
Answer: Its ALP is 69 ± 17 U/L and 71 ± 23 U/L.

Question: What about the ALT [3] of the same compound?
Answer: Its ALT is 67 ± 43 U/L and 53 ± 19 U/L.

Question: What about the BUN [3] of the same compound?
Answer: The BUN was 8.4 ± 0.9 mmol/L and 8.5 ± 1.7 mmol/L.

Question: What about the CO2 in serum [3] of the same compound?
Answer: Its CO2 in serum is 26.4 ± 1.2 mmol/L and 30.0 ± 2.5 mmol/L.

Question: And the “Ca^2+ in serum” value [3]?
Answer: The value was 3.26 ± 0.18 mmol/L and 3.34 ± 0.12 mmol/L.

Question: What about the Cre [3] of the same compound?
Answer: Its Cre is 109 ± 12 µmol/L and 99 ± 6 µmol/L.

Question: And the GTP [3]?
Answer: Its GTP is 5.2 ± 1.3 U/L and 5.7 ± 2.1 U/L.

Question: And the HCT [3]?
Answer: The HCT was 38.5 ± 3.4% and 33.6 ± 1.9%.

Question: And the HGB [3]?
Answer: The HGB was 12.4 ± 1.0 g/dL and 11.3 ± 0.6 g/dL.

Question: And the IP [3]?
Answer: The IP was 1.66 ± 0.23 mmol/L and 1.46 ± 0.40 mmol/L.

Question: What about the “K^+ in serum” value [3] of the same compound?
Answer: Its value is 3.8 ± 0.3 mmol/L and 3.8 ± 0.1 mmol/L.

Question: And the LAP [3]?
Answer: Its LAP is 109 ± 11 µmol/L and 108 ± 10 µmol/L.

Question: And the MCH [3]?
Answer: The MCH was 22.2 ± 1.4 pg and 22.5 ± 1.1 pg.

Question: And the MCHC [3]?
Answer: Its MCHC is 32.4 ± 1.3 g/dL and 33.6 ± 0.6 g/dL.

Question: And the MCV [3]?
Answer: The MCV was 68.5 ± 2.8 fL and 66.9 ± 2.1 fL.

Question: What about the “Na^+ in serum” value [3] of the same compound?
Answer: Its value is 141.1 ± 1.1 mmol/L and 141.7 ± 1.8 mmol/L.

Question: And the PLT [3]?
Answer: The PLT was 141 ± 120 ×10^3/μl and 159 ± 37 ×10^3/μl.

Question: And the TBA [3]?
Answer: The TBA was 13.5 ± 12.0 U/L and 14.5 ± 9.2 U/L.

Question: And the TP [3]?
Answer: The TP was 60 ± 6 g/L and 57 ± 6 g/L.

Question: What about the WBC [3] of the same compound?
Answer: Its WBC is 4.2 ± 1.2 ×10^3/μl and 6.6 ± 2.4 ×10^3/μl.

Question: What about the “effect on the blood cellular or biochemical parameters, in words” value [3] of the same compound?
Answer: The value was “did not have any significant effect”.

Question: What about the “RR (respiratory rate)” value [4] of the same compound?
Answer: The value was 99 ± 11 and 102 ± 2 and 102 ± 6 and 91 ± 10 and 94 ± 12 and 99 ± 5.

Question: What about the “effect on ECG, in words” value [4] of the same compound?
Answer: The value was “did not suggest any significant effect”.

Question: What about the “effect on heart rate or respiratory rate, in words” value [4] of the same compound?
Answer: Its value is “did not significantly modify the heart rate or respiratory rate”.

Question: What about the EC50 [5] of the same compound?
Answer: Its EC50 is 1040 ± 30 µM.

Question: For `CCCCNc1ccc(C(=O)OCCN(C)C)cc1` [tetracaine], which “period of partial pain relief as topical anesthetic for tooth pain” value [6] is on record?
Answer: Its value is “about 1 hour”.

Question: What about the “Percentage change” value ([1]; 1% tetracaine (equal to 33 mM), 20 μL to tooth pulp cavity, 10 min) of the same compound?
Answer: The value was 27 ± 30%.

Question: And the “Percentage change” value ([1]; 1% tetracaine (equal to 33 mM), 20 μL to tooth pulp cavity, 20 min)?
Answer: The value was 32 ± 38%.

Question: What about the “Percentage change” value ([1]; 1% tetracaine (equal to 33 mM), 20 μL to tooth pulp cavity, 30 min) of the same compound?
Answer: Its value is 29 ± 31%.

Question: And the “Percentage change” value ([1]; 1% tetracaine (equal to 33 mM), 20 μL to tooth pulp cavity, 40 min)?
Answer: The value was 32 ± 22%.

Question: What about the “Percentage change” value ([1]; 1% tetracaine (equal to 33 mM), 20 μL to tooth pulp cavity, 50 min) of the same compound?
Answer: Its value is 22 ± 15%.

Question: And the “Percentage change” value ([1]; 1% tetracaine (equal to 33 mM), 20 μL to tooth pulp cavity, 60 min)?
Answer: Its value is 16 ± 18%.

Question: And the “Percentage change” value ([1]; Table 7, 1% tetracaine, 20 μL to tooth pulp cavity, 15 min)?
Answer: The value was 27 ± 30%.

Question: And the “Percentage change” value ([1]; Table 7, 1% tetracaine, 20 μL to tooth pulp cavity, 45 min)?
Answer: The value was 32 ± 22%.

Question: What about the “effect on the threshold voltage compared to the solvent control, in words” value ([1]; rabbit, in vivo) of the same compound?
Answer: Its value is “markedly increased the threshold voltage”.

Question: Which results are given for `CCN(CC)CCOC(=O)c1ccc(N)cc1` [procaine]?
Answer: period of partial pain relief as topical anesthetic for tooth pain [6]: about 1 hour; Percentage change in pain-inducing threshold voltage ([1]; 2% anesthetic, 20 μL to tooth pulp cavity, 10 min): −2 ± 20%; Percentage change in pain-inducing threshold voltage ([1]; 2% anesthetic, 20 μL to tooth pulp cavity, 20 min): −2 ± 20%; Percentage change in pain-inducing threshold voltage ([1]; 2% anesthetic, 20 μL to tooth pulp cavity, 30 min): −4 ± 23%; Percentage change in pain-inducing threshold voltage ([1]; 2% anesthetic, 20 μL to tooth pulp cavity, 40 min): −3 ± 22%; Percentage change in pain-inducing threshold voltage ([1]; 2% anesthetic, 20 μL to tooth pulp cavity, 50 min): −2 ± 28%; Percentage change in pain-inducing threshold voltage ([1]; 2% anesthetic, 20 μL to tooth pulp cavity, 60 min): −1 ± 26%; effect on the threshold voltage compared to the solvent control, in words ([1]; rabbit, in vivo): no clear effect on the threshold voltage
